Source: patent publication US10174008B2, “Synthesis of cyclopropyl indoles and cyclohepta[B]indoles, pharmaceutical compositions containing them and method of using them” (WISCONSIN ALUMNI RESEARCH FOUNDATION, priority 2014, dated 2019)
Read-outs that look alike come from different tables or passages of the source.

What was measured:
PCSK9 secretion = PCSK9 secretion in HepG2 cells; format: cell-based; conditions: Homo sapiens
Text: (§1) PCSK9 expression is actively regulated at transcription levels. Statins are known to stimulate PCSK9 transcription which in turn curbs the efficacy of statins in LDL lowering in humans. […] A number of primary and secondary assays to measure PCSK9 secretion/modulation in response to putative active agents are known. Primary assays: PCSK9 Secretion HepG2 SP/CRC (% Inhibition/IC50); PCSK9 Secretion Cell Health HepG2 SP/CRC (% Inhibition/IC50); and Metabolic Luciferase Reporter Assay CRC (IC50). Secondary assays: PCSK9 ELISA HepG2 CRC (IC50); ApoA-1 ELISA HepG2 CRC (IC50), and Profiling Biochemical Activity—Kinase Panel SP/CRC (% Efficacy/IC50). All of these assays are publicly accessible via Lilly's Open Innovation Drug Discovery program (as well as other sources).

[1] = Cytotoxicity (PCSK9 Secretion Cell Health HepG2); format: cell-based; conditions: human, HepG2 cells; read-out: IC50-B cytotoxicity
Text: as §1

protein secretion = assay: Non-selective inhibition at protein secretion; format: cell-based; conditions: Homo sapiens; HepG2 cells; read-out: IC50-C non-selective inhibition at protein secretion
Text: as §1

IL17 secretion = IL17 secretion from human PBMCs stimulated with IL23, anti-CD3 and anti-CD28; format: cell-based; conditions: PBMC
Text: The present compounds are thus useful to treat autoimmune disorders such as (but not limited to) arthritis, multiple sclerosis, psoriasis, and inflammatory bowel disease. The IL-17 pathway plays an essential pathological role in many autoimmune diseases including arthritis, multiple sclerosis, psoriasis, and inflammatory bowel disease. IL-17 is produced and secreted by at least two classes of lymphocytes, δγ and CD4+ T cells (Th17). The orphan nuclear receptor RORg is required for the differentiation of Th17 cells where over-expression in human and rodent T cells induces transcripts found in Th17 cells encoding key cytokines for the IL23 receptor and chemokines for the CCR6 receptor. In addition to RORg, recent global analysis of transcription factors has highlighted the molecular complexity of the Th17 differentiation program.
Active compounds are identified by measuring their ability to inhibitor IL17 secretion from human peripheral blood mononuclear cells (PBMCs) following stimulation of memory T cells by IL23, anti-CD3, and anti-CD28. See M. Ciofani, et al (2012) “A validated regulatory network for Th17 cell specification.” Cell, 151:289-303.

IL5 = IL5 inhibition; format: cell-based
GLP-1 secretion = GLP-1 secretion (ELISA); format: cell-based
Text: Similarly, the present indole compounds also modify the activity of glucagon-like peptide 1 (GLP-1), which plays a critical role in hyperglycemia and diabetes in humans. Glucagon-like peptide 1 (GLP-1) is derived from transcription of the proglucagon gene followed by post-translational modifications of proglucagon to the following biologically active peptides: GLP-1 (7-37) and GLP-1 (7-36)-NH2. GLP-1 secretion by ileal L cells is dependent on the presence of nutrients in the lumen of the small intestine. GLP-1 is a potent anti-hyperglycemic hormone that induces glucose-dependent insulin secretion and suppresses glucagon secretion.
GLP-1 secretion is measured using an ELISA designed to detect the appropriate forms of GLP-1 secreted from these cells. See, for example, Gareth E. Kim and Patricia L. Brubaker (December 2006) “Glucagon-Like Peptide 1 Secretion by the L-Cell,” Diabetes: 55 (supplement 2).

[2] = HepG2 cells, read-out: IC50-A inhibition of PCSK9 secretion

Structure (SMILES)	IC50 (PCSK9 secretion; HepG2, read-out: PCSK9, IC50) [µM]	IC50 (PCSK9 secretion; [2]) [µM]	IC50 (protein secretion) [µM]	IC50 (IL17 secretion) [µM]	IC50 (IL5) [µM]	melting point [°C]	EC50 (GLP-1 secretion) [µM]	IC50 [1] [µM]
Cc1ccc(S(=O)(=O)n2c([C@@H]3CC3c3ccccc3)c(C)c3ccccc32)cc1 (stereo in doubt) [8b, 3-methyl-2-(2-phenylcyclopropyl)-1-tosyl-1H-indole]	21	21	–	–	–	156 to 157	–	–
Cc1ccc(S(=O)(=O)n2c(C3C[C@]3(CO)c3ccccc3)c(C)c3ccccc32)cc1 (stereo in doubt) [8i, (2-(3-methyl-1-tosyl-1H-indol-2-yl)-1-phenylcyclopropyl)methanol]	–	–	–	–	–	57 to 58	7.3	–

Continued, in another order:

IC50 (PCSK9 secretion; HepG2, read-out: PCSK9, IC50) [µM]	IC50 (PCSK9 secretion; [2]) [µM]	IC50 (protein secretion) [µM]	IC50 (IL17 secretion) [µM]	IC50 (IL5) [µM]	melting point [°C]	EC50 (GLP-1 secretion) [µM]	Structure (SMILES)	IC50 [1] [µM]
1.8	1.8	> 50	10	> 30	155 to 156	–	COc1ccc(C2C[C@@H]2c2c(C)c3ccccc3n2S(=O)(=O)c2ccc(C)cc2)cc1 (stereo in doubt) [8a, 2-(2-(4-methoxyphenyl)cyclopropyl)-3-methyl-1-tosyl-1H-indole]	> 50
9.9	9.9	> 50	7.3	> 30	106 to 107	–	Cc1ccc(S(=O)(=O)n2c([C@H]3C[C@H]3c3ccc4c(c3)OCO4)c(C)c3ccccc32)cc1 [8f, 2-(2-(benzo[d][1,3]dioxol-5-yl)cyclopropyl)-3-methyl-1-tosyl-1H-indole]	> 50
0.7	0.7	> 50	–	–	–	–	CCc1c(C2CC2c2ccc(OC)cc2)n(S(=O)(=O)c2ccc(C)cc2)c2ccccc12 (stereo not shown) [10g, 3-ethyl-2-(2-(4-methoxyphenyl)cyclopropyl)-1-tosyl-1H-indole]	> 50
–	–	–	–	–	75 to 76	28.4	COc1ccc(C2C=CCCc3c2c2ccccc2n3S(=O)(=O)c2ccc(C)cc2)cc1 (stereo not shown) [compound 14, (Z)-10-(4-methoxyphenyl)-5-tosyl-5,6,7,10-tetrahydrocyclohepta[b]indole]	–
